# Legend:
# [1] = feed intake on introduction of virginiamycin into the diet (general statements); format: in vivo, sheep, cattle and horses
# [2] = feed intake of horses on sudden or gradual introduction of virginiamycin (Founderguard); format: in vivo
# Procedure: The aim of the experiment was to determine if there is a depression in feed intake when horses are first given Founderguard at the recommended dose rate of 0.5 mg virginiamycin per kg body weight per day, and whether a gradual or sudden introduction of Founderguard has different effects on feed intake during the introductory period.
# Five horses of mixed ages and sexes were used in the experiment. All horses were treated against intestinal parasites prior to the Control period.
# Open air feeding stalls approximately 2.5 m square were prepared with ground-level hay feeders, car tyre bucket-holders for feeding grain and a water trough shared between two stalls. Horses entered the stalls around 7.00 AM each day and were let out for exercise around 5.00 PM. […]
# All the oats offered were consumed. Intake of all feed was measured on an ‘as-fed’ basis. […] While not measured objectively the quality of hay used in Period 2 was considered to be of higher quality than that used in Period 1. The effect of treatment on feed intake for each horse was calculated each day as a percentage of the mean intake for that animal during the five days of ‘Control’ intake measurement. […]
# Feed intake was measured for at least 5 days without Founderguard (control intake) before commencing the five day treatment period. […]
substance,measurement,setting,value
virginiamycin,feed intake compared to pre-medication levels,[1]; gradually increasing doses,no detectable decrease in feed intake
same,"feed intake, average, of the pretreatment level",[1]; sudden introduction of the full dose rate,around 80%
same,reduction of feed intake,"[1]; sudden introduction to sheep, cattle or horses at 0.5 mg per kg body weight and above, or 20 g/tonne and above",≥ 20%
same,effect on feed intake,"[2]; gradual introduction over 4 days (25, 50, 75, 100% of complete dose)",does not cause a depression in feed intake
same,feed intake compared to pretreatment levels (day 0) and to gradual introduction,[2]; sudden introduction of the full dose (0.5 mg/kg bodyweight per day),significant decrease in feed intake
